This passage reports pest or weed control and plant injury results from patent US20240251792A1, “WEED CONTROL METHOD” (SYNGENTA CROP PROTECTION AG, priority 2021, published 2024).

Read-outs that look alike come from different tables or passages of the source.

Type in all cases: in vivo
Test [1] relates to weeds and/or crops. Description: Post-emergence biological efficacy (Table 4). The settings on record: 312 h, 1000 g/ha, evaluated after 13 days. The procedure: (§1) Seeds of weeds and/or crops were sown in standard soil in pots. After cultivation for 14 days under controlled conditions in a glasshouse (at 24/19° C., day/night; 16 hours light), the plants were sprayed with an aqueous spray solution derived from the formulation of the technical active ingredient in a small amount of acetone and a special solvent and emulsifier mixture referred to as F50 (11.12% Emulsogen EL360 TM+44.44% N-methylpyrrolidone+44.44% Dowanol DPM glycol ether), to create a 50 g/l solution which was then diluted using 0.2% Genapol X080 as diluent to give the desired final dose of test compound.
(§2) The test plants were then grown under controlled conditions in the glasshouse (at 24/18° C., day/night; 15 hours light; 50% humidity) and watered twice daily. After 13 days the test was evaluated (100=total damage to plant; 0=no damage to plant).

In test [2] the test system is ECHCG. Description: Pre-emergence biological efficacy (Table 3). The settings on record: Echinochloa crus-galli, 312 h, 1000 g/ha, after 13 days, read-out: evaluation (100=total damage to plant; 0=no damage to plant). As to the method: as §1, with “one day” for “14 days”, “AMA” for “F50”
as §2

The subject of test [3] is IPOHE. Description: Pre-emergence biological efficacy (Table 3). The settings on record: Ipomoea hederacea, 312 h, 1000 g/ha, after 13 days, read-out: evaluation (100=total damage to plant; 0=no damage to plant). The procedure:
as §1, with “one day” for “14 days”, “AMA” for “F50”
as §2

For test [4], the system named is AMARE. Description: Pre-emergence biological efficacy (Table 3). The settings on record: Amaranthus retroflexus, 312 h, 1000 g/ha, after 13 days, read-out: evaluation (100=total damage to plant; 0=no damage to plant). As to the method:
as §1, with “one day” for “14 days”, “AMA” for “F50”
as §2

Test [5] relates to ABUTH. Description: Pre-emergence biological efficacy (Table 3). The settings on record: Abutilon theophrasti, 312 h, after 13 days, read-out: evaluation (100=total damage to plant; 0=no damage to plant). As to the method:
as §1, with “one day” for “14 days”, “AMA” for “F50”
as §2

In test [6] the test system is STEME. Description: Pre-emergence biological efficacy (Table 3). The settings on record: 312 h, after 13 days, read-out: evaluation (100=total damage to plant; 0=no damage to plant). As to the method:
as §1, with “one day” for “14 days”, “AMA” for “F50”
as §2

In test [7] the test system is ZEAMX. Description: Pre-emergence biological efficacy (Table 3). The settings on record: 312 h, 1000 g/ha, after 13 days, read-out: evaluation (100=total damage to plant; 0=no damage to plant). The procedure: as §1, with “one day” for “14 days”, “AMA” for “F50”
as §2

The mark [8] stands for this setting: STEME, read-out: damage to plant STEME (100=total damage; 0=no damage).
The mark [9] stands for this setting: ZEAMX, read-out: damage to plant ZEAMX (100=total damage; 0=no damage).
[10] abbreviates: Abutilon theophrasti, ABUTH, read-out: damage to plant ABUTH (100=total damage; 0=no damage).
The mark [11] stands for this setting: Amaranthus retroflexus, AMARE, read-out: damage to plant AMARE (100=total damage; 0=no damage).
Where [12] appears, read: Echinochloa crus-galli, ECHCG, read-out: damage to plant ECHCG (100=total damage; 0=no damage).
Where [13] appears, read: Ipomoea hederacea, IPOHE, read-out: damage to plant IPOHE (100=total damage; 0=no damage).

Take `COc1c(F)ccc(F)c1C(F)(F)C(=O)O` [Compound 1-314, 2-(3,6-Difluoro-2-methoxyphenyl)-2,2-difluoroacetic acid]: the pest or weed control at 1000 g/ha was found to be 0% in test [1] (setting [8]); 10% in test [1] (setting [9]); 0% in test [1] (setting [10]); 60% in test [1] (setting [11]); 0% in test [1] (setting [12]); 10% in test [1] (setting [13]). Moreover, the pest or weed control at 1000 g/ha in test [2], in test [3], in test [4], in test [5] and in test [6] was 0% throughout. Further, the plant injury at 1000 g/ha in test [7] is 0%.
In the case of `Cc1noc2cccc(C(F)(F)C(=O)O)c12` [Compound 1-391, 2,2-Difluoro-2-(3-methyl-1,2-benzoxazol-4-yl)acetic acid], the pest or weed control at 1000 g/ha in test [1] (setting [8]) was 50%; in test [1] (setting [9]), 10%; in test [1] (setting [11]), 70%; in test [1] (setting [12]), 30%; in test [1] (setting [13]) it was 80%; in test [2] it was 40%. Moreover, the pest or weed control at 1000 g/ha in test [3] was found to be 60%; in test [4] it was 70%; in test [5], 40%; in test [6] it was 20%. In addition, the plant injury at 1000 g/ha in test [7] amounted to 10%.
With `O=C(O)C(F)(F)c1cccc2c1OC(F)(F)O2` [Compound 1-385, 2-(2,2-Difluoro-1,3-benzodioxol-4-yl)-2,2-difluoro-acetic acid], the pest or weed control at 1000 g/ha in test [1] (setting [8]) worked out at 100%; in test [1] (setting [9]) it was 40%; in test [1] (setting [10]), 90%; in test [1] (setting [11]) it was 90%; in test [1] (setting [12]), 50%; in test [1] (setting [13]), 70%. The pest or weed control at 1000 g/ha in test [2] was found to be 50%; in test [3], 70%; in test [4], 60%; in test [5], 90%; in test [6], 50%. For the same compound, the plant injury at 1000 g/ha in test [7] was 50%.
On to `COc1ccc(Cl)c(C(F)(F)C(=O)O)c1` [Compound 1-62, 2-(2-Chloro-5-methoxyphenyl)-2,2-difluoroacetic acid], for which the pest or weed control at 1000 g/ha came out at 60% in test [1] (setting [8]); 20% in test [1] (setting [9]); 20% in test [1] (setting [10]); 60% in test [1] (setting [11]); 70% in test [1] (setting [13]); 30% in test [2]. The pest or weed control at 1000 g/ha in test [3] is 20%; in test [4], 80%; in test [5], 50%; in test [6] it was 80%. Also, the plant injury at 1000 g/ha in test [7] came to 20%.
`COc1cccc(C(F)(F)C(=O)O)c1Cl` [Compound 1-209, 2-(2-Chloro-3-methoxyphenyl)-2,2-difluoroacetic acid]: the pest or weed control at 1000 g/ha in test [1] (setting [8]) was found to be 90%; in test [1] (setting [9]), 10%; in test [1] (setting [11]), 80%; in test [1] (setting [12]) it was 10%; in test [1] (setting [13]), 80%; in test [2], 0%. Also, the pest or weed control at 1000 g/ha was found to be 80% in test [3], 70% in test [4], 60% in test [5] and 60% in test [6]. For the same compound, the plant injury at 1000 g/ha in test [7] was determined as 0%.
For `O=C(O)C(F)(F)c1c(F)ccc2cccnc12` [Compound 1-406, 2,2-Difluoro-2-(7-fluoro-8-quinolyl)acetic acid], the pest or weed control at 1000 g/ha in test [1] (setting [8]) came to 70%; in test [1] (setting [9]) it was 40%; in test [1] (setting [10]), 70%; in test [1] (setting [11]), 80%; in test [1] (setting [12]) it was 20%; in test [1] (setting [13]) it was 80%. Also, the pest or weed control at 1000 g/ha in test [2] worked out at 0%; in test [3], 60%; in test [4] it was 80%; in test [5], 60%; in test [6], 50%. Besides, the plant injury at 1000 g/ha in test [7] is 10%.
Take `Nc1c(Cl)cccc1C(F)(F)C(=O)O` [Compound 1-252, 2-(2-Amino-3-chloro-phenyl)-2,2-difluoro-acetic acid]: the pest or weed control at 1000 g/ha in test [1] (setting [8]) stood at 90%; in test [1] (setting [9]), 10%; in test [1] (setting [10]), 80%; in test [1] (setting [11]) it was 20%; in test [1] (setting [12]), 0%; in test [1] (setting [13]) it was 70%. Further, the pest or weed control at 1000 g/ha in test [2] was determined as 0%; in test [3], 50%; in test [4], 40%; in test [5] it was 90%; in test [6], 10%. The plant injury at 1000 g/ha in test [7] turned out to be 0%.
`Nc1ccc(Cl)c(C(F)(F)C(=O)O)c1` [Compound 1-63, 2-(5-Amino-2-chloro-phenyl)-2,2-difluoro-acetic acid]: the pest or weed control at 1000 g/ha in test [1] (setting [8]) turned out to be 0%; in test [1] (setting [9]), 0%; in test [1] (setting [10]) it was 10%; in test [1] (setting [11]) it was 20%; in test [1] (setting [12]), 10%; in test [1] (setting [13]) it was 20%. Also, the pest or weed control at 1000 g/ha in test [2], in test [3], in test [4], in test [5] and in test [6] was 0% throughout. Further, in test [7], the plant injury at 1000 g/ha is 0%.
Consider `Nc1ccc(Cl)c(C(F)(F)C(=O)O)c1Cl` [Compound 1-236, 2-(3-Amino-2,6-dichloro-phenyl)-2,2-difluoro-acetic acid], for which the pest or weed control at 1000 g/ha is 10% in test [1] (setting [8]); 10% in test [1] (setting [9]); 0% in test [1] (setting [10]); 30% in test [1] (setting [11]); 0% in test [1] (setting [12]); 30% in test [1] (setting [13]). Also, the pest or weed control at 1000 g/ha in test [2] came out at 0%; in test [3], 0%; in test [4], 20%; in test [5], 0%; in test [6], 0%.
In the case of `C=Cc1cccc(C(F)(F)C(=O)O)c1Cl` [Compound 1-207, 2-(2-Chloro-3-vinyl-phenyl)-2,2-difluoro-acetic acid], the pest or weed control at 1000 g/ha in test [1] (setting [8]) came out at 90%; in test [1] (setting [9]) it was 30%; in test [1] (setting [10]) it was 80%; in test [1] (setting [11]), 70%; in test [1] (setting [13]), 80%; in test [3], 90%. Also, the figures for the pest or weed control at 1000 g/ha in test [4], in test [5] and in test [6] were 80%, 90% and 90%, respectively. Further, in test [7], the plant injury at 1000 g/ha was determined as 30%.
